This is an account of results in DBAASP.

Common to all, as to assay: ≥ marks a high value that may be exact or a test limit, other limits are often not marked, values filed in µg/mL are converted to µM
Test [1] relates to Escherichia coli O157:H7 CICC 21530.
In test [2] the test system is Lacticaseibacillus rhamnosus 1.0911.
For test [3], the system named is Lacticaseibacillus rhamnosus 1.9021.
The subject of test [4] is Staphylococcus aureus ATCC 43300.
The subject of test [5] is Pseudomonas aeruginosa ATCC 27853.
Test [6] concerns Lacticaseibacillus rhamnosus 1.0936.
Test [7] concerns Escherichia coli ATCC 25922.
Test [8] deals with Streptococcus agalactiae BNCC 185941.
Test [9] relates to Escherichia coli K88.
Test [10] deals with Lacticaseibacillus rhamnosus 8014.
Test [11] relates to Salmonella enterica subsp. enterica serovar Pullorum C79-13.
In test [12] the test system is Salmonella enterica subsp. enterica serovar Choleraesuis CVCC 503.
The subject of test [13] is Staphylococcus epidermidis ATCC 12228.
The test system of test [14] is Salmonella enterica subsp. enterica serovar Typhimurium ATCC 14028.
The subject of test [15] is Pseudomonas aeruginosa PAO1.
The subject of test [16] is Staphylococcus aureus ATCC 29213.
The test system of test [17] is Escherichia coli K12 MG1655.
Test [18] concerns Escherichia coli J2210.
For test [19], the system named is Escherichia coli.
In test [20] the test system is Escherichia coli JW0368 ΔsbmA.
In test [21] the test system is Salmonella enterica subsp. enterica serovar Enteritidis MH91989.
Test [22] has as its system Escherichia coli JW2778 ΔygdD.
Test [23] has as its system Escherichia coli JW0013.
For test [24], the system named is Escherichia coli BW25113.
Test [25] has as its system Salmonella enterica subsp. enterica serovar Newport.
The test system of test [26] is Escherichia coli JJ2489.
Test [27] deals with Salmonella enterica subsp. enterica serovar Infantis.
In test [28] the test system is Escherichia coli MC1041.
In test [29] the test system is Salmonella enterica serovar Tennessee.
The subject of test [30] is Salmonella typhimurium SL1344.
Test [31] concerns Staphylococcus aureus ATCC 25923.
In test [32] the test system is Listeria monocytogenes KCTC 19111.
Test [33] relates to Pseudomonas aeruginosa ATCC 15692.
Test [34] deals with Salmonella typhimurium KCTC 1926.
Test [35] relates to Staphylococcus epidermidis KCTC 1917.
Test [36] deals with Escherichia coli DH5alpha.
In test [37] the test system is Porphyromonas gingivalis W50.
For test [38], the system named is Escherichia coli K99.
The subject of test [39] is Candida tropicalis CGMCC 2.1975.
Test [40] relates to Salmonella enterica subsp. enterica serovar Typhimurium C77-31.
The test system of test [41] is Candida parapsilosis CGMCC 2.3989.
In test [42] the test system is Salmonella enterica subsp. enterica serovar Pullorum ATCC 7913.
Test [43] has as its system Escherichia coli 078.
The test system of test [44] is Candida albicans CGMCC 2.2086.
Test [45] relates to Escherichia coli UB1005.

Structures are written as SMILES. In brackets after ≈: the same amount, converted by molar mass.

`CC(C)C[C@H](NC(=O)CNC(=O)[C@H](Cc1c[nH]c2ccccc12)NC(=O)CNC(=O)[C@H](CC(C)C)NC(=O)[C@H](CCCCN)NC(=O)[C@@H](N)CCCCN)C(=O)N[C@@H](CCCCN)C(=O)N[C@@H](CCCCN)C(N)=O` [KKLGWGLKK]: the MIC in test [1] was at least 128 µM; in test [2], at least 128 µM; in [3] it was at least 128 µM; in [4], above 128 µM; in test [5], above 128 µM; in [6], at least 128 µM. Besides, the minimal inhibitory concentration (MIC) in test [7] was above 128 µM; in test [8], at least 128 µM; in test [9] it was at least 128 µM; in test [10], at least 128 µM; in test [11], at least 128 µM; in test [12], at least 128 µM. Moreover, the minimum inhibitory concentration (MIC) in [13], in [14], in test [15] and in test [16] was above 128 µM in each case.
The compound `CC[C@H](C)[C@H](NC(=O)[C@H](CCCCN)NC(=O)[C@H](CCCCN)NC(=O)[C@@H](NC(=O)[C@@H](NC(=O)[C@H](CCCN=C(N)N)NC(=O)[C@H](CCCCN)NC(=O)[C@H](CCC(=O)O)NC(=O)CNC(=O)[C@H](C)N)[C@@H](C)CC)[C@@H](C)CC)C(=O)N[C@@H](CC(=O)O)C(=O)N[C@@H](CCC(=O)O)C(=O)N[C@@H](C)C(=O)N[C@@H](Cc1ccccc1)C(=O)N[C@@H](CCC(N)=O)C(=O)O` [AGEKRIIKKIDEAFQ] yielded an MIC in test [17] of at least 73.3 µM.
In the case of `CC(C)C[C@H](NC(=O)[C@H](CCCN=C(N)N)NC(=O)[C@@H]1CCCN1C(=O)[C@H](Cc1cnc[nH]1)NC(=O)[C@@H]1CCCN1C(=O)[C@@H]1CCCN1C(=O)[C@H](CCCN=C(N)N)NC(=O)[C@@H]1CCCN1C(=O)[C@H](CCC(N)=O)NC(=O)[C@@H]1CCCN1C(=O)[C@H](CCCCN)NC(=O)[C@H](Cc1ccc(O)cc1)NC(=O)[C@@H](NC(=O)[C@@H]1CCCN1C(=O)[C@H](CCCCN)NC(=O)[C@H](CC(N)=O)NC(=O)[C@H](CC(N)=O)NC(=O)CN)C(C)C)C(=O)O` [GNNKPVYKPQPRPPHPRL], the minimum inhibitory concentration (MIC) was 0.034 µM (≈ 0.0712 µg/mL) in [18]; 0.048 µM (≈ 0.101 µg/mL) in test [19]; 0.096 µM (≈ 0.201 µg/mL) in test [20]; 0.031 µM (≈ 0.065 µg/mL) in [21]; 0.024 µM (≈ 0.0503 µg/mL) in test [22]; 0.012 µM (≈ 0.0251 µg/mL) in test [23]. The MIC in [24] was found to be 0.017 µM (≈ 0.0356 µg/mL); in test [25], 0.024 µM (≈ 0.0503 µg/mL); in [26] it was 0.031 µM (≈ 0.065 µg/mL); in test [27], 0.024 µM (≈ 0.0503 µg/mL); in test [28], 0.024 µM (≈ 0.0503 µg/mL); in test [29] it was 0.024 µM (≈ 0.0503 µg/mL). For the same compound, the MIC in test [30] turned out to be 0.034 µM (≈ 0.0712 µg/mL).
For the compound `NCCCC[C@H](NC(=O)CNC(=O)[C@H](Cc1c[nH]c2ccccc12)NC(=O)[C@H](CCCCN)NC(=O)[C@H](CCCCN)NC(=O)CNC(=O)[C@H](Cc1c[nH]c2ccccc12)NC(=O)[C@H](CCCCN)NC(=O)[C@H](CCCCN)NC(=O)CNC(=O)[C@H](Cc1c[nH]c2ccccc12)NC(=O)[C@@H](N)CCCCN)C(N)=O` [KWGKKWGKKWGK], the MIC in test [31] was determined as 64 µM (≈ 97 µg/mL); in test [32], 8 µM (≈ 12.1 µg/mL); in [33] it was 4 µM (≈ 6.06 µg/mL); in [34], 16 µM (≈ 24.3 µg/mL); in test [7] it was 4 µM (≈ 6.06 µg/mL); in [35], 8 µM (≈ 12.1 µg/mL).
Turning to `CC[C@H](C)[C@H](NC(=O)[C@H](CCC(N)=O)NC(=O)CN)C(=O)N[C@H](C(=O)N[C@@H](CC(N)=O)C(=O)N[C@@H](CC(C)C)C(=O)N[C@@H](CCCCN)C(=O)N[C@@H](C)C(=O)N[C@@H](CO)C(=O)N[C@@H](CC(C)C)C(=O)N[C@@H](CC(=O)O)C(=O)N[C@@H](CC(C)C)C(=O)N[C@@H](CC(C)C)C(N)=O)[C@@H](C)CC` [GQIINLKASLDLL], the MIC in test [36] was at least 143 µM; in test [37], at least 119 µM; in [15], above 119 µM.
In the case of `CC[C@H](C)[C@H](NC(=O)[C@H](CCCN=C(N)N)NC(=O)[C@H](C)NC(=O)[C@H](C)N)C(=O)N[C@H](C(=O)N[C@@H](CC(C)C)C(=O)N[C@@H](CCCN=C(N)N)C(=O)N[C@H](C(=O)N[C@@H](CCCN=C(N)N)C(=O)N[C@@H](Cc1ccccc1)C(=O)N[C@@H](CCCN=C(N)N)C(N)=O)[C@@H](C)O)[C@@H](C)CC` [AARIILRTRFR], the MIC was 16 µM (≈ 21.9 µg/mL) in test [31]; 4 µM (≈ 5.49 µg/mL) in [38]; at least 32 µM in test [39]; 16 µM (≈ 21.9 µg/mL) in test [4]; above 128 µM in test [5]; 16 µM (≈ 21.9 µg/mL) in test [40]. Moreover, the minimal inhibitory concentration (MIC) was at least 64 µM in test [41]; 4 µM (≈ 5.49 µg/mL) in test [9]; 8 µM (≈ 11 µg/mL) in test [42]; 4 µM (≈ 5.49 µg/mL) in [43]; at least 128 µM in [44]; 16 µM (≈ 21.9 µg/mL) in [13]. Moreover, the results for the MIC in test [14] and in [45] were 16 µM (≈ 21.9 µg/mL) and 4 µM (≈ 5.49 µg/mL), respectively.
